Assay [1] concerns the target T1, DDR1 (Homo sapiens, UniProt Q08345). The assay can be described thus: DDR1 cell based assay (PathHunter U2OS DDR1 assay). Details: host or cells: U2OS-DDR1. The following applies: U2OS-DDR1 cells, bovine Type II Collagen 20 μg/ml, luminescence. As to the method: The inhibition of DDR1 receptor activation by compounds was evaluated by PathHunter® U2OS DDR1 assay (Eurofins DiscoverX), according to the manufacturer's instructions. Briefly, U2OS-DDR1 cells were seeded in white 384-well plates at a density of 5000 cells/well and incubated for 2 hours at 37° C. and 5% CO2. Cells were then treated with compounds at different concentrations and incubated for 30 minutes, before stimulation with bovine Type II Collagen 20 μg/ml and incubation overnight at 37° C. and 5% CO2. PathHunter Detection Reagents were prepared according to the protocol provided by DiscoverX and 20 μl/well of this mix were added to each well. After incubating the plates for 1 hour at room temperature in the dark, luminescence signal was acquired with a plate reader. Raw data were normalized to vehicle control (0% for normalization) and positive control (100% for normalization; cells treated with 20 μg/ml collagen II) and IC50 parameters were calculated in GraphPad Prism 8.0 software, using sigmoidal dose-response curve fitting with variable slope.

In assay [2] the target is T1, DDR1. The assay can be described thus: DDR1 binding assay (LanthaScreen Europium Kinase Binding assay). The following applies: 5 nM DDR1, 20 nM Kinase Tracer 178, 1 hour at room temperature; Ki from IC50 by Cheng-Prusoff. Details: purchased Carna Biosciences. The procedure: (§1) DDR1 and DDR2 binding assays were performed using Life Technologies LanthaScreen™ Europium Kinase Binding assay. The compounds were incubated with 5 nM DDR1 (Carna Biosciences) or 5 nM DDR2 (Life Technologies) for 1 hour at room temperature in white 384-well OptiPlate (PerkinElmer), containing 20 nM or 10 nM Kinase Tracer 178 respectively and 2 nM Europium labelled anti-GST antibody (Life Technologies) in assay buffer (50 mM HEPES pH 7.5, 10 mM MgCl2, 1 mM EGTA and 0.01% BRIJ35).
(§2) The ratio of fluorescence emission 665 nm/615 nm after excitation at 340 nm was obtained using the Tecan Spark 20M plate reader. IC50 values were determined in GraphPad Prism 7.0 software, using 4 parameter model: log(inhibitor) vs. response. IC50 values were converted in Ki using the Cheng-Prusoff equation (Ki=IC50/(1+[Tracer]/Kd).

For assay [3], the target named is T2, DDR2 (Homo sapiens, UniProt Q16832).
T2 sequence (Q16832 22-855): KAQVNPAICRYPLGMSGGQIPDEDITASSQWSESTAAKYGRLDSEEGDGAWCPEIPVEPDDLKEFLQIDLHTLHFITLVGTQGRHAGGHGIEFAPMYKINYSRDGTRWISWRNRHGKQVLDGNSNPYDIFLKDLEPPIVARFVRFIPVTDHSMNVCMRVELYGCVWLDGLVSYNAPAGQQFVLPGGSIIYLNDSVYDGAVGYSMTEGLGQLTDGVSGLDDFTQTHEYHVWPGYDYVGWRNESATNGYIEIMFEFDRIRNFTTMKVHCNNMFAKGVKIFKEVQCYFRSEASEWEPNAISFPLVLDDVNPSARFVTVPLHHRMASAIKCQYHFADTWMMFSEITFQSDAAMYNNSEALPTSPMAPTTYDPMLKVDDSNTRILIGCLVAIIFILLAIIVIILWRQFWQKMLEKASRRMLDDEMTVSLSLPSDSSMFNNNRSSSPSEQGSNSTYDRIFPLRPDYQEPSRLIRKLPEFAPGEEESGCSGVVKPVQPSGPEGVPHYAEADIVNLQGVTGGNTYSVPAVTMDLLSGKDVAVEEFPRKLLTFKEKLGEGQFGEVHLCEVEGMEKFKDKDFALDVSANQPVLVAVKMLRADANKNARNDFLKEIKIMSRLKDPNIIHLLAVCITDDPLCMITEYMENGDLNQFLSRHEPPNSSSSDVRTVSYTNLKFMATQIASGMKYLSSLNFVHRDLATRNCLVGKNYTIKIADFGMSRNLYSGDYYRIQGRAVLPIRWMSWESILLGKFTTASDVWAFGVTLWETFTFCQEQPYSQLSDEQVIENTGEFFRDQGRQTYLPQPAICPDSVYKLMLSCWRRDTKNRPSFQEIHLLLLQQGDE
The assay can be described thus: DDR2 cell based assay (phospho-ELISA in HEK293T-DDR2 recombinant cells). Set-up: expressed in transfected cells; host or cells: HEK293T-DDR2 recombinant cells. The following applies: bovine Type II Collagen 50 μg/ml. The procedure:
The inhibition of DDR2 phosphorylation by compounds was evaluated in HEK293T-DDR2 recombinant cells by phospho-ELISA assay. Briefly, HEK293T-DDR2 cells were seeded in poly-D-lysine-coated 24-well plates at a density of 250.000 cells/well and incubated for 1.5 hours at 37° C. and 5% CO2 in DMEM+10% FBS. After that, the medium was changed to serum-free DMEM and cells were incubated for 3 hours. Then. test compounds were added at different concentrations 30 minutes before stimulation with bovine Type II Collagen at 50 μg/ml for further 3 hours. For DDR2 phospho-ELISA assay (DuoSet IC Human Phospho-DDR2; R&D Systems), protein extracts were obtained by adding 60 μl/well of lysis buffer prepared according to the manufacturer's instructions. Protein concentration in the samples was determined by BCA assay and the levels of phospho-DDR2 were determined following R&D Systems indications. Raw data were normalized to maximal inhibition control (0% for normalization) and positive control (100% for normalization; cells treated with […] collagen II) and IC50 parameters were calculated in GraphPad Prism 8.0 software, using sigmoidal dose-response curve fitting with variable slope.

In assay [4] the target is T2, DDR2. The assay can be described thus: DDR2 binding assay (LanthaScreen Europium Kinase Binding assay). Set-up: purchased Life Technologies. The following applies: 5 nM DDR2, 10 nM Kinase Tracer 178, 1 hour at room temperature; Ki from IC50 by Cheng-Prusoff. As to the method: as §1, §2

This passage reports IC50 and Ki results from patent publication US20230227447A1, “BENZYLAMINE DERIVATIVES AS DDRS INHIBITORS” (CHIESI FARMACEUTICI S.P.A., priority 2020, published 2023).

Some results are limits rather than exact numbers.

T1 sequence (Q08345 19-913): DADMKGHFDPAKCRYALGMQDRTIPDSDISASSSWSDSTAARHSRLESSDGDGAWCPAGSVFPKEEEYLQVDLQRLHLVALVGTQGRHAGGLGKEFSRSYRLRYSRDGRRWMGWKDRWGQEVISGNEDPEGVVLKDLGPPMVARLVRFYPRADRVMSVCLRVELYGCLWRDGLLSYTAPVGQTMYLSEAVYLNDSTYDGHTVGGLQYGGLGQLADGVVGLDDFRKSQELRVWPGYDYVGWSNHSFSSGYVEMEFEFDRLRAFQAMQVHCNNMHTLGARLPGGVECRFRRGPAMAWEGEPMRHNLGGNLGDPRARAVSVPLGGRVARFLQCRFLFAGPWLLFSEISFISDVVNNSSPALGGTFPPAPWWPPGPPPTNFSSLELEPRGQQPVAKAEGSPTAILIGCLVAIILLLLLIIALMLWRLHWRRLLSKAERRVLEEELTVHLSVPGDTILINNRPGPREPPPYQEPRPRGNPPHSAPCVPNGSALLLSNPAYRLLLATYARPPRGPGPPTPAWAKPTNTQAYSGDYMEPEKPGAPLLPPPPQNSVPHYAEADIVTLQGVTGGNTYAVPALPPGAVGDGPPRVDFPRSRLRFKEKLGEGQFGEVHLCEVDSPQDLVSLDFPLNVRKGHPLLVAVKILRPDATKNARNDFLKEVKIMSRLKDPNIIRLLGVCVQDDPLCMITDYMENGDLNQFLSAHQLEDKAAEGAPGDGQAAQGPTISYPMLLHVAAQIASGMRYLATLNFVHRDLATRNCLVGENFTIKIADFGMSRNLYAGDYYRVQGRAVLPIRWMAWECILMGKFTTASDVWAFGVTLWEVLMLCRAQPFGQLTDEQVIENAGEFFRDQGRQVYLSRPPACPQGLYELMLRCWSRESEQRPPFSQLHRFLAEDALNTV

The term IC50 denotes the concentration at which inhibition is half-maximal. A word on the Ki: it is the equilibrium dissociation constant of an inhibitor or competing ligand from its target. As for `Cc1ccc(C(=O)Nc2cccc(C(F)(F)F)c2)cc1CNc1cccnc1` [Example 34, 4-methyl-3-((pyridin-3-ylamino)methyl)-N-(3-(trifluoromethyl)phenyl)benzamide], the concentration for half-maximal inhibition (IC50) against DDR1 [1] and at DDR2 [3] was less than 10 nM throughout. Moreover, the Ki at DDR1 [2] and at DDR2 [4] was less than 30 nM throughout.
